We go through 16 molecules from article PMC10965220 (Bioorganic chemistry, 2022).

What is called IC50 is the concentration needed to halve the response being measured. Low values mean higher potency, high ones lower potency.

Molecules are shown by their SMILES.

In one assay the target is T1, human COX-1 (Ovis aries, UniProt P05979).
T1 sequence (P05979 25-600): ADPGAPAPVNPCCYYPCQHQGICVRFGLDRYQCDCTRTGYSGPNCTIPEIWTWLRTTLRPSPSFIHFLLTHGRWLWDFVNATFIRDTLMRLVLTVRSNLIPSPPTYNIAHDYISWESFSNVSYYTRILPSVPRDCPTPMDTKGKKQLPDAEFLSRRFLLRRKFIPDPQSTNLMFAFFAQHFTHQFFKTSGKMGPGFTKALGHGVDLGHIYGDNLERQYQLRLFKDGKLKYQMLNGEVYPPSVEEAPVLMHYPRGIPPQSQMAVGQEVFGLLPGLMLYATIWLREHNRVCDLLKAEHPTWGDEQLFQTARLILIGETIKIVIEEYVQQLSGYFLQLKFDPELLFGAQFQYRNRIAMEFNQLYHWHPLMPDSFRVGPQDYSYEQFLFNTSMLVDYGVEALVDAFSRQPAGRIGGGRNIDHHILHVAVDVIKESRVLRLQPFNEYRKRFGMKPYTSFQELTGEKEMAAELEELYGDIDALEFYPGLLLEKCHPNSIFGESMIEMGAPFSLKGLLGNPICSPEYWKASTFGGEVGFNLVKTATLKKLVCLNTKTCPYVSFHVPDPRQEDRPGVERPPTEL
The assay can be described thus: In vitro COX-1 inhibition assay.

For another assay, the target named is T2, human COX-2 (Homo sapiens, UniProt P35354).
T2 sequence (P35354 18-604): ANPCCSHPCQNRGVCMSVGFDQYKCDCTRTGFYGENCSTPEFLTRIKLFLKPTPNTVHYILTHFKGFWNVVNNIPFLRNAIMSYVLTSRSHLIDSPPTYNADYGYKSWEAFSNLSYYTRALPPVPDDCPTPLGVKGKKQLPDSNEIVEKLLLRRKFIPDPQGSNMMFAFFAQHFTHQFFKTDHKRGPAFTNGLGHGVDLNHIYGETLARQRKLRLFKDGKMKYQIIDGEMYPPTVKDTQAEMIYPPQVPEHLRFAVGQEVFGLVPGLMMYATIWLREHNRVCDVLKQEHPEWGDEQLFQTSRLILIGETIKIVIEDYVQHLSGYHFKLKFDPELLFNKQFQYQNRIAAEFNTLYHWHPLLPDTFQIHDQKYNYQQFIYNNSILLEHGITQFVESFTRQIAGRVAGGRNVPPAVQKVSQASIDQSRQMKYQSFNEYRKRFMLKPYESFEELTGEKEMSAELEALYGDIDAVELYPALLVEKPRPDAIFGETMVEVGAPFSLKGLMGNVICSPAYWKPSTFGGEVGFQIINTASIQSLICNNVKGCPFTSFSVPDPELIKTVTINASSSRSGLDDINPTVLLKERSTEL
The assay can be described thus: In vitro COX-2 inhibition assay. The conditions noted are these: for COX-2 SI: Selectivity index = COX-1 IC50/COX-2 IC50.

Assay [1] relates to LPS-induced ROS production in RAW 264.7 cells. The assay can be described thus: ROS production in LPS-activated RAW 264.7 macrophages. It is filed as cell-based, murine. The conditions noted are these: vs reference celecoxib.
In assay [2] the test system is LPS-induced NO production in RAW 264.7 cells. Description: NO production in LPS-activated RAW 264.7 macrophages. It is filed as cell-based, murine. The conditions noted are these: vs reference celecoxib.

The molecule `CC(=O)c1ccc(NC(=O)CSc2nnc(-c3ccc(NC(=O)c4cccnc4)cc3)o2)cc1` [Compound 8a, N-(4-(5-((2-((4-Acetylphenyl)amino)-2-oxoethyl)thio)-1,3,4-oxadiazol-2-yl)phenyl)nicotinamide] yielded an IC50 against human COX-1 of 11.5 ± 1.01 µM. For the same molecule, at human COX-2, the concentration for half-maximal inhibition (IC50) was determined as 0.05 ± 0.01 µM and the “COX-2 SI” value came to 230.

With `O=C(CSc1nnc(-c2ccc(NC(=O)c3cccnc3)cc2)o1)Nc1ccc([N+](=O)[O-])cc1` [Compound 8b, N-(4-(5-((2-((4-Nitrophenyl)amino)-2-oxoethyl)thio)-1,3,4-oxadiazol-2-yl)phenyl)nicotinamide], the IC50 on human COX-1 stood at 8.5 ± 0.6 µM; on human COX-2, 0.14 ± 0.01 µM. Moreover, in assay [1], the “fold lower ROS IC50 than celecoxib” value is “about 476 fold”. For the same molecule, the “COX-2 SI” value at human COX-2 is listed as 60.71. The “fold better NO IC50 than celecoxib” value in assay [2] was “more than 41 fold”.

For `Cc1ccc(NC(=O)CSc2nnc(-c3ccc(NC(=O)c4cccnc4)cc3)o2)cc1` [Compound 8c, N-(4-(5-((2-((4-Methylphenyl)amino)-2-oxoethyl)thio)-1,3,4-oxadiazol-2-yl)phenyl)nicotinamide], the values for the IC50 on human COX-1 and at human COX-2 were 11.5 ± 0.85 µM and 0.05 ± 0.01 µM, respectively. The “COX-2 SI” value at human COX-2 turned out to be 230.

Take `Cc1ccc(C)c(NC(=O)CSc2nnc(-c3ccc(NC(=O)c4cccnc4)cc3)o2)c1` [Compound 8d, N-(4-(5-((2-((2,5-Dimethylphenyl)amino)-2-oxoethyl)thio)-1,3,4-oxadiazol-2-yl)phenyl) nicotinamide]: the results for the IC50 on human COX-1 and against human COX-2 were 10.5 ± 2.98 µM and 0.16 ± 0.04 µM, respectively. For the same molecule, the “COX-2 SI” value on human COX-2 came to 65.63.

`O=C(CSc1nnc(-c2ccc(NC(=O)c3cccnc3)cc2)o1)Nc1ccc(F)cc1` [Compound 8e, N-(4-(5-((2-((4-Fluorophenyl)amino)-2-oxoethyl)thio)-1,3,4-oxadiazol-2-yl)phenyl)nicotinamide]: the figures for the IC50 against human COX-1 and on human COX-2 were 7.5 ± 0.75 µM and 0.11 ± 0.01 µM, respectively. For the same molecule, the “COX-2 SI” value on human COX-2 came out at 68.18.

For `O=C(CSc1nnc(-c2ccc(NC(=O)c3cccnc3)cc2)o1)Nc1cccc(Br)c1` [Compound 8f, N-(4-(5-((2-((3-Bromophenyl)amino)-2-oxoethyl)thio)-1,3,4-oxadiazol-2-yl)phenyl)nicotinamide], the IC50 at human COX-1 was 10 ± 3.17 µM; on human COX-2 it was 0.08 ± 0.01 µM. Moreover, the “COX-2 SI” value at human COX-2 amounted to 125.

With `O=C(CSc1nnc(-c2ccc(NC(=O)c3cccnc3)cc2)o1)Nc1ccccc1Cl` [Compound 8g, N-(4-(5-((2-((2-Chlorophenyl)amino)-2-oxoethyl)thio)-1,3,4-oxadiazol-2-yl)phenyl)nicotinamide], the half-inhibitory concentration (IC50) at human COX-1 was 8.5 ± 0.71 µM. At human COX-2, the IC50 came to 0.05 ± 0.01 µM and the “COX-2 SI” value amounted to 170.

With `Cc1ccc(C=Nn2c(-c3ccc(NC(=O)c4cccnc4)cc3)n[nH]c2=S)cc1` [Compound 10a, N-(4-(4-((4-Methylbenzylidene)amino)-5-thioxo-4,5-dihydro-1H-1,2,4-triazol-3-yl)phenyl) nicotinamide], the concentration for half-maximal inhibition (IC50) was 11.5 ± 0.98 µM against human COX-1 and 0.11 ± 0.02 µM on human COX-2. The “COX-2 SI” value on human COX-2 amounted to 104.55.

On to `O=C(Nc1ccc(-c2n[nH]c(=S)n2N=Cc2c[nH]c3ccccc23)cc1)c1cccnc1` [Compound 10b, N-(4-(4-(((1H-Indol-3-yl)methylene)amino)-5-thioxo-4,5-dihydro-1H-1,2,4-triazol-3-yl)phenyl) nicotinamide], for which the IC50 worked out at 8 ± 0.14 µM on human COX-1 and 0.11 ± 0.01 µM on human COX-2. Moreover, at human COX-2, the “COX-2 SI” value came to 72.73.

Regarding `CC(=O)c1ccc(NC(=O)CSc2nnc(-c3ccc(NC(=O)c4cccnc4)cc3)n2N)cc1` [Compound 11a, N-(4-(5-((2-((4-Acetylphenyl)amino)-2-oxoethyl)thio)-4-amino-4H-1,2,4-triazol-3-yl)phenyl) nicotinamide], the half-maximal inhibitory concentration (IC50) against human COX-1 came out at 8.5 ± 0.62 µM. On human COX-2, it took 0.11 ± 0.01 µM to reach half-maximal inhibition (IC50) and the “COX-2 SI” value was found to be 77.27.

The molecule `Nn1c(SCC(=O)Nc2ccc([N+](=O)[O-])cc2)nnc1-c1ccc(NC(=O)c2cccnc2)cc1` [Compound 11b, N-(4-(4-Amino-5-((2-((4-nitrophenyl)amino)-2-oxoethyl)thio)-4H-1,2,4-triazol-3-yl)phenyl) nicotinamide] yielded an IC50 against human COX-1 of 11.5 ± 1.41 µM. Also, at human COX-2, inhibition was half-maximal at 0.08 ± 0.01 µM (IC50) and the “COX-2 SI” value is listed as 143.75.

`Cc1ccc(NC(=O)CSc2nnc(-c3ccc(NC(=O)c4cccnc4)cc3)n2N)cc1` [Compound 11c, N-(4-(4-Amino-5-((2-((4-methylphenyl)amino)-2-oxoethyl)thio)-4H-1,2,4-triazol-3-yl)phenyl) nicotinamide] had an IC50 against human COX-1 of 13.5 ± 1.63 µM. Besides, on human COX-2, it took 0.04 ± 0.01 µM to reach half-maximal inhibition (IC50) and the “COX-2 SI” value is recorded as 337.5.

Consider `Cc1ccc(C)c(NC(=O)CSc2nnc(-c3ccc(NC(=O)c4cccnc4)cc3)n2N)c1` [Compound 11d, N-(4-(4-Amino-5-((2-((2,5-dimethylphenyl)amino)-2-oxoethyl)thio)-4H-1,2,4-triazol-3-yl)phenyl) nicotinamide], for which the IC50 against human COX-1 came out at 10.5 ± 3.03 µM; on human COX-2, 0.08 ± 0.01 µM. Besides, the “COX-2 SI” value at human COX-2 was 131.25.

Regarding `Nn1c(SCC(=O)Nc2ccc(F)cc2)nnc1-c1ccc(NC(=O)c2cccnc2)cc1` [Compound 11e, N-(4-(4-Amino-5-((2-((4-fluorophenyl)amino)-2-oxoethyl)thio)-4H-1,2,4-triazol-3-yl)phenyl) nicotinamide], on human COX-1, half-maximal inhibition (IC50) was put at 10 ± 2.34 µM. In addition, at human COX-2, the concentration for half-maximal inhibition (IC50) amounted to 0.06 ± 0.01 µM and the “COX-2 SI” value is listed as 166.67.

In the case of `Nn1c(SCC(=O)Nc2cccc(Br)c2)nnc1-c1ccc(NC(=O)c2cccnc2)cc1` [Compound 11f, N-(4-(4-Amino-5-((2-((3-bromophenyl)amino)-2-oxoethyl)thio)-4H-1,2,4-triazol-3-yl)phenyl) nicotinamide], it took 9.5 ± 0.99 µM to reach half-maximal inhibition on human COX-1 (IC50). At human COX-2, half-maximal inhibition (IC50) was put at 0.09 ± 0.01 µM and the “COX-2 SI” value is recorded as 105.56.

Turning to `Nn1c(SCC(=O)Nc2ccccc2Cl)nnc1-c1ccc(NC(=O)c2cccnc2)cc1` [Compound 11g, N-(4-(4-Amino-5-((2-((2-chlorophenyl)amino)-2-oxoethyl)thio)-4H-1,2,4-triazol-3-yl)phenyl) nicotinamide], the IC50 on human COX-1 turned out to be 10.5 ± 2.25 µM. Besides, at human COX-2, inhibition was half-maximal at 0.08 ± 0.01 µM (IC50) and the “COX-2 SI” value is 131.25.
